Measured values published in patent US4220637A (Agence Nationale de Valorisation de la Recherche, priority 1976, dated 1980).

System: rabbits
Assay: pyrogenic effect test on rabbits (Pharmacopee Francaise, 9th edition, II-235)
Format: in vivo

In the case of `CC(=O)N[C@H]1C(O)O[C@H](CO)[C@@H](O)[C@@H]1O[C@H](C)C(=O)N[C@@H](C)C(=O)N[C@H](CCC(N)=O)C(N)=O` (stereo partly drawn) [Mur-NAc-L-Ala-D-Glu(NH2)--NH2, diamide of the 2-(2-acetamido-2-deoxy-3-O-D-glucopyranosyl)-D-propionyl-L-alanyl-D-glutamic acid], the increase of temperature (2 mg/kg, sub-cutaneously and intravenously) is reported as “did not induce any increase of temperature” and the pyrogenic effect (Pharmacopee Francaise protocol) is reported as “fully devoid of any pyrogenic effect”.
